The text below walks through data of patent US11938113B2, “Epigallocathechin gallate solution” (ASSISTANCE PUBLIQUE—HOPITAUX DE PARIS, priority 2017, dated 2024).

Molecules are shown by their SMILES. Where “and” joins values, the source holds several entries; their conditions need not be identical. Equal values may be shown once. Read-outs that look alike come from different tables or passages of the source.

The conditions of series [1]: after 1-h ultra violet irradiation; cited from earlier work.
The conditions of series [2]: at normal condition, in water; cited from earlier work.
A short description of series [3]: Solubility of EGCG in sucrose solution versus EGCG alone in water. It is filed as physicochemical. The following applies: after 4 hours of dissolution.
Excerpt: The solubility of EGCG in a solution containing 10% by weight of sucrose is compared to that of EGCG alone in water.
Series [4] in a line: Stress stability testing (thermal gradient 25 to 135° C., HPLC of residue). It is filed as physicochemical. The following applies: heating 25 to 135° C. at 5° C. per min.
Description: Both solutions were subjected to progressive heating ranging from 25 to 135° C. at a rate of 5° C. per minute. At end of heating, the residues formed from each solution are illustrated in FIG. 2A and are analyzed by high performance liquid chromatography.
1 mL of the reference standard suspension and a formulation of the invention disclosed Table 1 before were subjected to a thermal gradient program ranging from 25 to 135° C. at a rate of 5° C. per min. At the end of this exposure, part of each of the residues formed was deposited on a glass slide and the remaining part analyzed by high performance liquid chromatography.

Take `O=C(O[C@@H]1Cc2c(O)cc(O)cc2O[C@@H]1c1cc(O)c(O)c(O)c1)c1cc(O)c(O)c(O)c1` [EGCG, Epigallocatechin gallate]: in series [1], the “decomposition of EGCG” value is recorded as 70%. The “solubility of EGCG” value in series [2] was 4.6 g/L and 10 mM; in series [3], no more than 5000 µg/mL. The “appearance of residue at the end of heating” value in series [4] was “black”. Also, in series [4] (HPLC), the “chromatographic analysis of residue (EGCG remaining)” value is on record as “practically no more EGCG”.
